In series [1] the target is T1, carbonic anhydrase (Bos taurus, UniProt P00921).
T1 construct: purchased Sigma-Aldrich
Put plainly: Carbonic anhydrase (CA) assay. As to conditions: bovine enzyme, p-nitrophenyl acetate substrate, pH 7.6, 25°C; for IC50: read-out: Carbonic anhydrase IC50 ± SEM. Type of series: biochemical.

Series [2] has as its target T1, carbonic anhydrase. Put plainly: Kinetic analysis (Lineweaver-Burk) of carbonic anhydrase inhibition. In kind it is biochemical, bovine. On the procedure: CA inhibition has been determined using some reported methods with a few modifications. […] In brief, 120 microliters of 50 mM Tris-Sulfate buffer (with a pH 7.6 comprising 0.1 mM ZnCl2), twenty μL of (50 U) bovine enzyme, and 20 μL of inhibitor per well makes the reaction mixture. Mixture contents were mixed well before preincubation for ten minutes at 25°C. Para-nitrophenyl acetate substrate (6 mM stock solution by using <5% acetonitrile present in buffer and has been used fresh each time) and forty microliters were taken I each well to reach 0.6 mM concentration per well. The volume of the reaction mixture was diluted to 200 μL. Contents were well mixed after thirty-minute incubation at 25°C, and absorbance results were determined at 348 nm with a microplate reader (SpectraMax ABS, USA). Standard used was acetazolamide. Experiments were performed in triplicate with each concentration. GraphPad Prism 5.0 (GraphPad, San Diego, CA, USA) has been used to calculate IC50 by nonlinear regression. Inhibition (%) = [(B − S)/B] × 100, where S and B are the absorbances of the samples and blank.
To determine the kinetic parameters of compound 3c, a sequence of experiments have been done. Compound 3c was selected on the basis of IC50 value which was used at different concentrations (0.0, 7.1, 14.2, and 28.4 μM, respectively); the substrate (p-nitrophenyl acetate) concentrations were varied (2, 1, 0.5, 0.25, 0.125, and 0.0625 mM). Other all experimental conditions were just similar as described in the carbonic anhydrase assay segment. The maximum initial velocity has been measured using the starting linear part of absorbance values up to ten minutes at a 1-minute interval. Plots of Lineweaver–Burk on graph between inverse of velocities (1/V) and inverse of concentration of substrate 1/[S] mM^−1 were used in order to find enzyme inhibition type. EI dissociation constant Ki was found by the secondary plot of concentrations of inhibitors versus 1/V.

A further series relates to MCF-7 cells. The series can be described thus: Cell viability assay (MTT) using MCF-7. Type of series: cell-based, human. As to conditions: MCF-7, 24 h, 0, 125 and 250 μM. As for the experimental part:
(§1) The experiment for cell viability studies using MTT (3-(4,5-dimethylthiazol-2yl)-2,5-diphenyltetrazolium bromide) setup has been done to find cytotoxic effects of target compounds. The human keratinocyte (HaCaT) and MCF-7 were cultivated separately in 96-well plates (CGP, gamma sterilized, SPL Korea) with use of complete DMEM consisting of ten percent fetal bovine serum and one percent antibiotics. 5∗10^4 cells per well were incubated for 24 hours before their exposure to a series of dilutions of target derivatives. The analogue 3c was solubilized in DMSO, and DMEM was used for dilution to achieve final concentrations 0, 125, and 250 μM. Then, in the presence of test compounds, cells were incubated again for twenty-four hours at 37 C with 5% carbon dioxide. Now, through the MTT setup, absorbance values at 570 nm were determined by ELISA reader and each experiment was repeated thrice. All data was shown in a mean ± standard deviation pattern, and Student's t-tests were performed to analyze significance of the data. Statistical significance has been assumed (p < 0.005).

Series [3] deals with human keratinocyte (HaCaT) cells. Put plainly: Cell viability assay (MTT) using HaCaT. In kind it is cell-based. As for the experimental part:
as §1

Data on ten compounds can be found in PMC7054763, “Sulfonamide-Based Azaheterocyclic Schiff Base Derivatives as Potential Carbonic Anhydrase Inhibitors: Synthesis, Cytotoxicity, and Enzyme Inhibitory Kinetics” (BioMed Research International, 2020).

The structures appear in SMILES notation. “Also recorded” adds a separate entry of the source.

T1 sequence (P00921 whole entry): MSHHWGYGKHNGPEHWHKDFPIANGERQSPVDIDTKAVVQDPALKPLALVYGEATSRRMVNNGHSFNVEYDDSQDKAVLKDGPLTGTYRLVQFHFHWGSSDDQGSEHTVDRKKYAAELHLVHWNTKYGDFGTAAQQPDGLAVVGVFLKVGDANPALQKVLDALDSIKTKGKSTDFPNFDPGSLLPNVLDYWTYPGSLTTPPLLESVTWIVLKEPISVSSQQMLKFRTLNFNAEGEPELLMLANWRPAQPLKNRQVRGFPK

`O=S(=O)(N/N=C/c1cccnc1)c1ccccc1` [Compound 3a, (E)-N′-(pyridin-3-ylmethylene)benzenesulfonohydrazide] displayed a melting point of 176 to 178 °C. Also, the “Carbonic anhydrase IC50 ± SEM” value at carbonic anhydrase [1] is reported as “No inhibition”.
For `Cc1cc(C)c(S(=O)(=O)N/N=C/c2cccnc2)c(C)c1` [Compound 3b, (E)-2,4,6-trimethyl-N′-(pyridin-3-ylmethylene)benzenesulfonohydrazide] the same measures were 173 to 176 °C and “No inhibition”.
In the case of `Cc1ccc(S(=O)(=O)N/N=C/c2cccnc2)cc1` [Compound 3c, (E)-4-methyl-N′-(pyridin-3-ylmethylene)benzenesulfonohydrazide], the melting point was 168 to 171 °C. For the same compound, the IC50 at carbonic anhydrase [1] is 0.84 ± 0.12 µM. Moreover, the Vmax on carbonic anhydrase [2] (3c 7.1 μM) is 0.01006 ΔA/min. Moreover, on carbonic anhydrase [2] (3c 14.2 μM), the Vmax is listed as 0.004552 ΔA/min. Moreover, the Vmax on carbonic anhydrase [2] (3c 28.4 μM) is given as 0.002293 ΔA/min. Also, the Inhibition type entry on carbonic anhydrase [2] (Lineweaver-Burk plots) was “noncompetitive mode of inhibition; also recorded: noncompetitively”. At carbonic anhydrase [2] (secondary plot of Lineweaver-Burk slope versus 3c concentration, read-out: Ki (EI dissociation constant)), the Ki is 8.6 µM. The “Cytotoxicity (cell viability)” value with MCF-7 cells is listed as “caused cytotoxicity in a concentration-dependent manner”. Further, the “Cytotoxic effects, HaCaT compared with MCF-7” value in series [3] (HaCaT versus MCF-7, 250 μM) is reported as “smaller in case of human keratinocyte (HaCaT) at concentration 250 μM than MCF-7; also recorded: less cytotoxic effects on human keratinocyte cell lines (HaCaT) compared to breast cancer cell lines MCF-7”. The “Cytotoxicity (cell viability)” value in series [3] (HaCaT, 24 h, 0, 125 and 250 μM) is reported as “caused cytotoxicity in a concentration-dependent manner”.
As to `CC(=O)Nc1ccc(S(=O)(=O)N/N=C/c2cccnc2)cc1` [Compound 3d, (E)-N-(4-((2-(pyridin-3-ylmethylene)hydrazinyl)sulfonyl)phenyl)acetamide], the melting point was in the range of 181 to 184 °C. Besides, the “Carbonic anhydrase IC50 ± SEM” value on carbonic anhydrase [1] is “No inhibition”.
Turning to `Cc1cc(C)c(S(=O)(=O)N/N=C/c2ccncc2)c(C)c1` [Compound 3e, (E)-2,4,6-trimethyl-N′-(pyridin-4-ylmethylene)benzenesulfonohydrazide], the melting point lay within 160 to 164 °C. Further, the IC50 at carbonic anhydrase [1] amounted to 18.9 ± 0.85 µM.
`Cc1ccc(S(=O)(=O)N/N=C/c2ccncc2)cc1` [Compound 3f, (E)-4-methyl-N′-(pyridin-4-ylmethylene)benzenesulfonohydrazide] registered a melting point of 148 to 152 °C. For the same compound, at carbonic anhydrase [1], the “Carbonic anhydrase IC50 ± SEM” value is “No inhibition”.
In the case of `Cc1ccc(S(=O)(=O)N/N=C/c2ccccn2)cc1` [Compound 3g, (E)-4-methyl-N′-(pyridin-2-ylmethylene)benzenesulfonohydrazide], the melting point lay within 159 to 161 °C. The IC50 on carbonic anhydrase [1] amounted to 59.1 ± 1.68 µM.
In the same order, the values of `O=S(=O)(N/N=C/c1ccc[nH]1)c1ccccc1` [Compound 3h, (E)-N′-((1H-pyrrol-2-yl)methylene)benzenesulfonohydrazide] are 156 to 158 °C and 31.8 ± 1.07 µM.
As for `Cc1ccc(S(=O)(=O)N/N=C/c2ccc[nH]2)cc1` [Compound 3i, (E)-N′-((1H-pyrrol-2-yl)methylene)-4-methylbenzenesulfonohydrazide], the melting point lay within 146 to 148 °C. Further, the “Carbonic anhydrase IC50 ± SEM” value on carbonic anhydrase [1] is “No inhibition”.
For `COc1ccc(S(=O)(=O)N/N=C/c2cc[nH]c2)cc1` [Compound 3j, (E)-N′-((1H-pyrrol-3-yl)methylene)-4-methoxybenzenesulfonohydrazide] the same measures were 176 to 179 °C and “No inhibition”.

As a reminder, the melting point is the temperature of the solid-liquid transition. For orientation: IC50 means the concentration at which inhibition is half-maximal. As usually defined, the Ki is a dissociation constant, usually derived from enzyme kinetics or from competition with a known ligand.
